Earlier results as cited in US20210401846A1, “MEDICAMENT, COMPOUND, COMPOSITION AND METHOD FOR TREATING HERPES” (priority 2020, published 2021).
Read-outs that look alike come from different tables or passages of the source.

Legend:
[1] = not given; remark: listed apart in the source
aldehyde oxidase = biological target: T1, aldehyde oxidase (Homo sapiens, UniProt Q06278); settings: in vitro inhibitors of aldehyde oxidase
T1 construct: host or cells: endogenous enzyme in vivo
T1 sequence (Q06278 1-1338): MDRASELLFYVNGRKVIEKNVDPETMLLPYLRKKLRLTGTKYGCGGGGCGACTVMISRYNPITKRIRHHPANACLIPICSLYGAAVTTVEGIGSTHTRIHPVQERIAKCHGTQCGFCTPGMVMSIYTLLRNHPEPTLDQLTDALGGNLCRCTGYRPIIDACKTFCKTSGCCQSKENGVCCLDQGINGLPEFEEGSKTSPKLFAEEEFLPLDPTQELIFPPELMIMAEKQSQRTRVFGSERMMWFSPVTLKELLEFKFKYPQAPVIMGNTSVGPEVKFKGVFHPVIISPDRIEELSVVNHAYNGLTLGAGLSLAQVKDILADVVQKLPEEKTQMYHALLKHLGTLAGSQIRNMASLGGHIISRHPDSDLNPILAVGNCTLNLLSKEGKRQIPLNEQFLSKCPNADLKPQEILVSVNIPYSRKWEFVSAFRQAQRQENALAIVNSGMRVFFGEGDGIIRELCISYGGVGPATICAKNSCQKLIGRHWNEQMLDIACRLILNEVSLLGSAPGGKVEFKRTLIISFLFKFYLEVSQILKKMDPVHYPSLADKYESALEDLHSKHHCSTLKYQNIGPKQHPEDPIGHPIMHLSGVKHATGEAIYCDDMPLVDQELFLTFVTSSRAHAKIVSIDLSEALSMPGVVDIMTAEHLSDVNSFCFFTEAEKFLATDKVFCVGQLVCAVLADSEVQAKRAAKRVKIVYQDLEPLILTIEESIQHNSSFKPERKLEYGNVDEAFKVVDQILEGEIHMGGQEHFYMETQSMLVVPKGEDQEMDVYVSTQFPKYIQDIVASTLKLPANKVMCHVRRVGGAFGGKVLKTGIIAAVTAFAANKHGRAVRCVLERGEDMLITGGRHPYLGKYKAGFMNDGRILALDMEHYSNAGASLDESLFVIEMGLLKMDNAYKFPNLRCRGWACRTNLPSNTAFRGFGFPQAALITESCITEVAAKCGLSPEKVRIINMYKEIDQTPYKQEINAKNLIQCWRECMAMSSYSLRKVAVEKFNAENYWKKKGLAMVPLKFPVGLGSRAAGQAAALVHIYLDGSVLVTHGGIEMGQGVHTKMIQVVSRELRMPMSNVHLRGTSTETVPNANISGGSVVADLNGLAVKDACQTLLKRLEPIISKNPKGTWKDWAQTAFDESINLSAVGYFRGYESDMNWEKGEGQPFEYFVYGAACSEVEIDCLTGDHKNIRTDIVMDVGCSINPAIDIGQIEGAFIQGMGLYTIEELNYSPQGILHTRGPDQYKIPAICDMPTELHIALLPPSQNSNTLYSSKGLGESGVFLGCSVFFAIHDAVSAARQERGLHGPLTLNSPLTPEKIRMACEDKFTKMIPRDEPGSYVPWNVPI

[2] = during therapy
cytochrome P450 = settings: human liver microsomes
[3] = not given; remark: listed apart in the source
[4] = for half-life: 17 patients with herpes zoster
[5] = not given; remark: listed apart in the source
[6] = after single oral 500 mg radiolabeled famciclovir
[7] = single oral 500 mg radiolabeled famciclovir, 3 healthy male volunteers
[8] = oral administration of radiolabeled valacyclovir
[9] = oral single dose 500 mg famciclovir, 7 patients with herpes zoster

Nc1ncc2ncn(CCC(CO)CO)c2n1 [6-deoxy penciclovir]
share of the radioactivity excreted in the urine [6]: 7%
inactive metabolite, % of the dose in the urine (oral administration of famciclovir): 5%

Nc1nc2c(ncn2COCCO)c(=O)[nH]1 [Acyclovir]
Excretion: urine, primarily as acyclovir ([1]; in vivo): 89%

CN/C(=N/CCSCc1nc[nH]c1C)NC#N [Cimetidine]
effects on the formation of penciclovir in vivo (aldehyde oxidase): did not show relevant effects

CC(=O)OCC(CCn1cnc2cnc(N)nc21)COC(C)=O [Famciclovir, famciclovir]
famciclovir detected in plasma or urine (oral administration): Little or no
radiolabeled dose collected in urine in the first 6 hours (single oral 500 mg radiolabeled famciclovir): Approximately 60%
administered radioactivity recovered in feces over 72 hours [7]: 27%
administered radioactivity recovered in urine over 72 hours [7]: 73%
clinically apparent liver injury [2]: has not been associated with instances of clinically apparent liver injury
serum ALT elevations [2]: low rate of mild-to-moderate serum ALT elevations
role of cytochrome P450 in famciclovir metabolism (cytochrome P450): does not play an important role

CC(C)[C@H](N)C(=O)OCCOCn1cnc2c(=O)[nH]c(N)nc21 [Valacyclovir]
clinically apparent liver injury [2]: rare instances mild, clinically apparent liver injury
Half-life elimination ([1]; normal renal function, adults): ~0.5 h
Bioavailability ([1]; once converted to acyclovir): ~55%
label eliminated in the feces (nonabsorbed drug) [1, 8]: 46%
radiolabel eliminated in the urine [1, 8]: 47%
Absorption ([1]; valacyclovir): Rapid

Nc1nc2c(ncn2CCC(CO)CO)c(=O)[nH]1 [penciclovir]
blood/plasma ratio [3]: approximately 1
bound to plasma proteins ([3]; concentration range 0.1 to 20 mcg/mL): < 20%
dose excreted in the first 6 hours (5 mg/kg radiolabeled penciclovir, 1-hour infusion): 83%
administered radioactivity recovered in urine over 24 hours (5 mg/kg radiolabeled penciclovir, 1-hour infusion, 3 healthy male volunteers): Approximately 94%
accumulation of penciclovir (500 mg famciclovir three times daily for 7 days): no accumulation
share of the radioactivity excreted in the urine (after 5 mg/kg radiolabeled penciclovir infusion): 91%
share of the radioactivity excreted in the urine [6]: 82%
Penciclovir concentrations vs dose (famciclovir 125 mg to 1000 mg single dose): increased in proportion to dose
renal clearance as share of total plasma clearance (intravenous penciclovir): 74.5±8.8%
half-life ([4]; repeated doses): 2.7 ± 1.0 h
half-life ([4]; single dose): 2.8 ± 1.0 h
AUC of penciclovir greater in patients with herpes zoster as compared to healthy volunteers ([4]; human, in vivo): approximately 35%
AUC (mean±SD) [4, 9]: 12100 ± 1700 ng·h/mL
Cmax [4, 9]: 4000 ± 700 ng/mL
tmax [4, 9]: 0.7 ± 0.2 h
Cmax decrease ([5]; capsule formulation of famciclovir administered with food (approx. 910 Kcal, 26% fat)): approximately 50%
decrease in Cmax ([5]; famciclovir 2 hours after a meal vs 2 hours before a meal): 18%

CC(CN1c2ccccc2Sc2ccccc21)N(C)C (centres unmarked) [promethazine]
effects on the formation of penciclovir in vivo (aldehyde oxidase): did not show relevant effects
